Measured values reported in patent US5962415A, “Compositions comprising a peptide inhibitor of nuclear protein translocation and an immunosuppressant and methods of use thereof” (Bristol-Myers Squibb Co., priority 1998, dated 1999).

What was measured:
IκB = IκB degradation in LPS-activated 70Z/3 cells (Western analysis); assay type: cell-based, murine; details: 2 μM, LPS 100 ng/ml for 0-120 min
Description: IκB is an inhibitor of NF-κB nuclear translocation. When cells are activated by the appropriate proinflammatory stimulus, e.g., cytokines or LPS, IκB is degraded. […] This experiment was done to explore the effect of the SV40MEM polypeptide on IKB degradation in murine 70Z/3 cells.
Murine 70Z/3 cells (5×10^7 cells) were incubated with the SV40MEM polypeptide (2 μM) or PBS. The two groups of cells were subdivided into aliquots and activated with LPS (100 ng/ml) for 0, 15, 30, 60, or 120 min. The cells were lysed in 200 μL lysing buffer (20 mM N-(2-hydroxyethyl)piperazine-N'-(2-ethanesulfonic acid) ("HEPES"), pH 7.2, 20 mM NaCl, 2.5 mM MgCI2, 0.1% nonylphenoxy polyethoxy ethanol ("NP-40")). The lysates were frozen until analyzed for the presence of IκB by Western analysis using an antibody directed to the carboxy terminus of IκB (Santa Cruz Corp., Santa Cruz, Calif.) according to the manufacturer's instructions.

[1] = system: THP-1 human monocytic cells; test: LPS-stimulated cytokine (TNF-α, IL-8) production in THP-1 cells; assay type: cell-based; details: 5 μM or 10 μM, 2 hr preincubation, 5 hr LPS stimulation, FIG. 2
Description: Amounts of TNF-α, IL-6, IL-8 and IL-10 were determined using the ELISA kits obtained from Genzyme following the manufacturer's instructions.
THP-1 control cells were harvested, washed and set up in RPMI 1640, 10% fetal calf serum, at a concentration of 2.56×10^6 cells/ml. Phosphate buffered saline ("PBS") or one of the two respective polypeptides SV40MEM or SV40 (a peptide having only the SV40 large T antigen NLS sequence) were added to the cells at a concentration of 10 μM or 20 μM. The cells were then plated into a 96-well plate with 0.1 ml/well. The plate was then incubated for 2 hr at 37° C. in a 5% CO2 atmosphere. Following the initial incubation, media or a titration of LPS was added to each of the wells in a volume of 0.1 ml. Thus, the final concentrations of polypeptides were 5 μM or 10 μM. Following 5 hr of LPS stimulation, supernatants were taken and TNF-α and IL-8 levels were determined by ELISA. In addition, cells treated with PBS or polypeptides, but not incubated with LPS, were removed at the time of supernatant removal to determine the viability of the cells following 7 hr of contact with the polypeptides.
This experiment was conducted to compare the inhibitory effect of the SV40MEM polypeptide and other inhibitory polypeptides on LPS induction of cytokine production. THP-1 control cells (ATCC 9/95 stock) were harvested, washed and set up in RPMI 1640, 10% fetal calf serum as described in Example 2. The cells were incubated for 2 hr with PBS or (1) the FGF signal sequence, (2) a polypeptide having the FGF signal sequence and the NLS of NF-κB p50 on the carboxy terminus of the signal sequence, (3) the SV40MEM polypeptide comprised of L-amino acids, or (4) the SV40MEM polypeptide comprised of D-amino acids at a final concentration of 5 μM. The cells were then plated into a 96-well plate with 0.1 ml/well. The plate was then incubated for 2 hr at 37° C. in a 5% CO2 atmosphere. Following the initial incubation, media or a titration of LPS was added to each of the wells in a volume of 0.01 ml/well. Following 5 hr of LPS stimulation, supernatants were taken and TNF-α levels were determined by ELISA.

“PKKKRKVAAVALLPAVLLALLAPKKKRKVC [SV40MEM, FGF signal peptide hydrophobic region flanked by SV40 large T antigen NLS]” was tested. Which “degradation of IκB” value (IκB) did it give?
The value was “no apparent degradation of IκB”.

And the TNF-α production [1]?
Its TNF-α production is “inhibited TNF-α production in a dose-dependent manner”.
